Test system: not listed separately
Assay: Mouse pharmacokinetic study, oral administration
Type: in vivo
Conditions: male, C57BL/6, mouse, plasma, po, 100 mg/kg, plasma, male C57BL/6 mice, oral gavage 100 mg/kg, 0.083 h; read-out: Parent compound concentrations following oral administration, Time 0.083 h
Procedure, shortened: (§1)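 Oral arm: 100 mg/kg gavage in 5% DMSO with 0.5% HPMC/0.1% Tween 80, blood from 5 min to 24 h. Intravenous arm: 10 mg/kg tail-vein injection in 10% DMSO with HP-β-CD, blood from 3 min to 8 h. Male C57BL/6 mice; LC-MS/MS on plasma.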

SMILES | concentration at 0.083 h
C=C(CC(=O)OCCCCCC)C(=O)OCC(=O)O [Example 94, 2-((4-(hexyloxy)-2-methylene-4-oxobutanoyl)oxy)acetic acid] | 27800 ng/mL
C=C(CC(=O)O[C@@H](C)CCCCCC)C(=O)OCc1nn[nH]n1 [Example 164, (S)-1-(2H-tetrazol-5-yl)methyl 4-octan-2-yl 2-methylenesuccinate] | 3790 ng/mL

Same assay, conditions: male, C57BL/6, mouse, plasma, po, 100 mg/kg, plasma, male C57BL/6 mice, oral gavage 100 mg/kg, 0.25 h; read-out: Parent compound concentrations following oral administration, Time 0.25 h

SMILES | concentration at 0.25 h
C=C(CC(=O)OCCCCCC)C(=O)OCC(=O)O [Example 94, 2-((4-(hexyloxy)-2-methylene-4-oxobutanoyl)oxy)acetic acid] | 12600 ng/mL
C=C(CC(=O)O[C@@H](C)CCCCCC)C(=O)OCc1nn[nH]n1 [Example 164, (S)-1-(2H-tetrazol-5-yl)methyl 4-octan-2-yl 2-methylenesuccinate] | 2970 ng/mL

Same assay, conditions: male, C57BL/6, mouse, plasma, po, 100 mg/kg, plasma, male C57BL/6 mice, oral gavage 100 mg/kg, 0.5 h; read-out: Parent compound concentrations following oral administration, Time 0.5 h

SMILES | concentration at 0.5 h
C=C(CC(=O)OCCCCCC)C(=O)OCC(=O)O [Example 94, 2-((4-(hexyloxy)-2-methylene-4-oxobutanoyl)oxy)acetic acid] | 8220 ng/mL
C=C(CC(=O)O[C@@H](C)CCCCCC)C(=O)OCc1nn[nH]n1 [Example 164, (S)-1-(2H-tetrazol-5-yl)methyl 4-octan-2-yl 2-methylenesuccinate] | 1860 ng/mL

Same assay, conditions: male, C57BL/6, mouse, plasma, po, 100 mg/kg, plasma, male C57BL/6 mice, oral gavage 100 mg/kg, 1 h; read-out: Parent compound concentrations following oral administration, Time 1 h

SMILES | concentration at 1 h
C=C(CC(=O)OCCCCCC)C(=O)OCC(=O)O [Example 94, 2-((4-(hexyloxy)-2-methylene-4-oxobutanoyl)oxy)acetic acid] | 3110 ng/mL
C=C(CC(=O)O[C@@H](C)CCCCCC)C(=O)OCc1nn[nH]n1 [Example 164, (S)-1-(2H-tetrazol-5-yl)methyl 4-octan-2-yl 2-methylenesuccinate] | 968 ng/mL

Same assay, conditions: male, C57BL/6, mouse, plasma, po, 100 mg/kg, plasma, male C57BL/6 mice, oral gavage 100 mg/kg, 2 h; read-out: Parent compound concentrations following oral administration, Time 2 h

SMILES | concentration at 2 h
C=C(CC(=O)OCCCCCC)C(=O)OCC(=O)O [Example 94, 2-((4-(hexyloxy)-2-methylene-4-oxobutanoyl)oxy)acetic acid] | 2140 ng/mL
C=C(CC(=O)O[C@@H](C)CCCCCC)C(=O)OCc1nn[nH]n1 [Example 164, (S)-1-(2H-tetrazol-5-yl)methyl 4-octan-2-yl 2-methylenesuccinate] | 585 ng/mL

Same assay, conditions: male, C57BL/6, mouse, plasma, po, 100 mg/kg, plasma, male C57BL/6 mice, oral gavage 100 mg/kg, 4 h; read-out: Parent compound concentrations following oral administration, Time 4 h

SMILES | concentration at 4 h
C=C(CC(=O)OCCCCCC)C(=O)OCC(=O)O [Example 94, 2-((4-(hexyloxy)-2-methylene-4-oxobutanoyl)oxy)acetic acid] | 392 ng/mL
C=C(CC(=O)O[C@@H](C)CCCCCC)C(=O)OCc1nn[nH]n1 [Example 164, (S)-1-(2H-tetrazol-5-yl)methyl 4-octan-2-yl 2-methylenesuccinate] | 381 ng/mL

Same assay, conditions: male, C57BL/6, mouse, plasma, po, 100 mg/kg, plasma, male C57BL/6 mice, oral gavage 100 mg/kg, 6 h; read-out: Parent compound concentrations following oral administration, Time 6 h

SMILES | concentration at 6 h
C=C(CC(=O)OCCCCCC)C(=O)OCC(=O)O [Example 94, 2-((4-(hexyloxy)-2-methylene-4-oxobutanoyl)oxy)acetic acid] | 196 ng/mL
C=C(CC(=O)O[C@@H](C)CCCCCC)C(=O)OCc1nn[nH]n1 [Example 164, (S)-1-(2H-tetrazol-5-yl)methyl 4-octan-2-yl 2-methylenesuccinate] | 135 ng/mL

Same assay, conditions: male, C57BL/6, mouse, plasma, po, 100 mg/kg, plasma, male C57BL/6 mice, oral gavage 100 mg/kg, 8 h; read-out: Parent compound concentrations following oral administration, Time 8 h

SMILES | concentration at 8 h
C=C(CC(=O)OCCCCCC)C(=O)OCC(=O)O [Example 94, 2-((4-(hexyloxy)-2-methylene-4-oxobutanoyl)oxy)acetic acid] | 90 ng/mL
C=C(CC(=O)O[C@@H](C)CCCCCC)C(=O)OCc1nn[nH]n1 [Example 164, (S)-1-(2H-tetrazol-5-yl)methyl 4-octan-2-yl 2-methylenesuccinate] | 181 ng/mL

Same assay, conditions: male, C57BL/6, mouse, plasma, po, 100 mg/kg, plasma, male C57BL/6 mice, oral gavage 100 mg/kg, 24 h; read-out: Parent compound concentrations following oral administration, Time 24 h

SMILES | concentration at 24 h
C=C(CC(=O)OCCCCCC)C(=O)OCC(=O)O [Example 94, 2-((4-(hexyloxy)-2-methylene-4-oxobutanoyl)oxy)acetic acid] | < 0.8 ng/mL
C=C(CC(=O)O[C@@H](C)CCCCCC)C(=O)OCc1nn[nH]n1 [Example 164, (S)-1-(2H-tetrazol-5-yl)methyl 4-octan-2-yl 2-methylenesuccinate] | < 4 ng/mL

Test system: not listed separately
Assay: Mouse pharmacokinetic study, intravenous dosing
Type: in vivo
Conditions: male, C57BL/6, mouse, iv; plasma, 10 mg/kg i.v., time 0.05 h; read-out: Parent compound concentration following intravenous administration
Procedure, shortened: as §1

SMILES | concentration at 0.05 h
C=C(CC(=O)OCCCCCC)C(=O)OCC(=O)O [Example 94, 2-((4-(hexyloxy)-2-methylene-4-oxobutanoyl)oxy)acetic acid] | 18000 ng/mL
C=C(CC(=O)O[C@@H](C)CCCCCC)C(=O)OCc1nn[nH]n1 [Example 164, (S)-1-(2H-tetrazol-5-yl)methyl 4-octan-2-yl 2-methylenesuccinate] | 6690 ng/mL

Same assay, conditions: male, C57BL/6, mouse, iv; plasma, 10 mg/kg i.v., time 0.133 h; read-out: Parent compound concentration following intravenous administration

SMILES | concentration at 0.133 h
C=C(CC(=O)OCCCCCC)C(=O)OCC(=O)O [Example 94, 2-((4-(hexyloxy)-2-methylene-4-oxobutanoyl)oxy)acetic acid] | 6070 ng/mL
C=C(CC(=O)O[C@@H](C)CCCCCC)C(=O)OCc1nn[nH]n1 [Example 164, (S)-1-(2H-tetrazol-5-yl)methyl 4-octan-2-yl 2-methylenesuccinate] | 1250 ng/mL

Same assay, conditions: male, C57BL/6, mouse, iv; plasma, 10 mg/kg i.v., time 0.25 h; read-out: Parent compound concentration following intravenous administration

SMILES | concentration at 0.25 h
C=C(CC(=O)OCCCCCC)C(=O)OCC(=O)O [Example 94, 2-((4-(hexyloxy)-2-methylene-4-oxobutanoyl)oxy)acetic acid] | 2440 ng/mL
C=C(CC(=O)O[C@@H](C)CCCCCC)C(=O)OCc1nn[nH]n1 [Example 164, (S)-1-(2H-tetrazol-5-yl)methyl 4-octan-2-yl 2-methylenesuccinate] | 534 ng/mL

Same assay, conditions: male, C57BL/6, mouse, iv; plasma, 10 mg/kg i.v., time 0.5 h; read-out: Parent compound concentration following intravenous administration

SMILES | concentration at 0.5 h
C=C(CC(=O)OCCCCCC)C(=O)OCC(=O)O [Example 94, 2-((4-(hexyloxy)-2-methylene-4-oxobutanoyl)oxy)acetic acid] | 550 ng/mL
C=C(CC(=O)O[C@@H](C)CCCCCC)C(=O)OCc1nn[nH]n1 [Example 164, (S)-1-(2H-tetrazol-5-yl)methyl 4-octan-2-yl 2-methylenesuccinate] | 211 ng/mL

Same assay, conditions: male, C57BL/6, mouse, iv; plasma, 10 mg/kg i.v., time 1 h; read-out: Parent compound concentration following intravenous administration

SMILES | concentration at 1 h
C=C(CC(=O)OCCCCCC)C(=O)OCC(=O)O [Example 94, 2-((4-(hexyloxy)-2-methylene-4-oxobutanoyl)oxy)acetic acid] | 42 ng/mL
C=C(CC(=O)O[C@@H](C)CCCCCC)C(=O)OCc1nn[nH]n1 [Example 164, (S)-1-(2H-tetrazol-5-yl)methyl 4-octan-2-yl 2-methylenesuccinate] | 18 ng/mL

Same assay, conditions: male, C57BL/6, mouse, iv; plasma, 10 mg/kg i.v., time 2 h; read-out: Parent compound concentration following intravenous administration

SMILES | concentration at 2 h
C=C(CC(=O)OCCCCCC)C(=O)OCC(=O)O [Example 94, 2-((4-(hexyloxy)-2-methylene-4-oxobutanoyl)oxy)acetic acid] | 1.9 ng/mL
C=C(CC(=O)O[C@@H](C)CCCCCC)C(=O)OCc1nn[nH]n1 [Example 164, (S)-1-(2H-tetrazol-5-yl)methyl 4-octan-2-yl 2-methylenesuccinate] | < 4 ng/mL

Same assay, conditions: male, C57BL/6, mouse, iv; plasma, 10 mg/kg i.v., time 4 h; read-out: Parent compound concentration following intravenous administration

SMILES | concentration at 4 h
C=C(CC(=O)OCCCCCC)C(=O)OCC(=O)O [Example 94, 2-((4-(hexyloxy)-2-methylene-4-oxobutanoyl)oxy)acetic acid] | 1.4 ng/mL
C=C(CC(=O)O[C@@H](C)CCCCCC)C(=O)OCc1nn[nH]n1 [Example 164, (S)-1-(2H-tetrazol-5-yl)methyl 4-octan-2-yl 2-methylenesuccinate] | < 4 ng/mL

Same assay, conditions: male, C57BL/6, mouse, iv; plasma, 10 mg/kg i.v., time 6 h; read-out: Parent compound concentration following intravenous administration

SMILES | concentration at 6 h
C=C(CC(=O)OCCCCCC)C(=O)OCC(=O)O [Example 94, 2-((4-(hexyloxy)-2-methylene-4-oxobutanoyl)oxy)acetic acid] | < 0.8 ng/mL
C=C(CC(=O)O[C@@H](C)CCCCCC)C(=O)OCc1nn[nH]n1 [Example 164, (S)-1-(2H-tetrazol-5-yl)methyl 4-octan-2-yl 2-methylenesuccinate] | < 4 ng/mL

Same assay, conditions: male, C57BL/6, mouse, iv; plasma, 10 mg/kg i.v., time 8 h; read-out: Parent compound concentration following intravenous administration

SMILES | concentration at 8 h
C=C(CC(=O)OCCCCCC)C(=O)OCC(=O)O [Example 94, 2-((4-(hexyloxy)-2-methylene-4-oxobutanoyl)oxy)acetic acid] | < 0.8 ng/mL
C=C(CC(=O)O[C@@H](C)CCCCCC)C(=O)OCc1nn[nH]n1 [Example 164, (S)-1-(2H-tetrazol-5-yl)methyl 4-octan-2-yl 2-methylenesuccinate] | < 4 ng/mL

Test system: IL-1β cytokine output from THP-1s
Assay: THP-1 AlphaLISA IL-1β cytokine assay
Type: cell-based, human
Conditions: Homo sapiens, THP-1, PMA-differentiated THP-1 cells, LPS 24 hr then Nigericin 1 hour; read-out: IL-1β (IC50)
Procedure, shortened: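 PMA-differentiated (72 h) THP-1 cells pretreated 30 min with compound, LPS-stimulated 24 h, then nigericin 1 h at 37 °C. Supernatant IL-1β and IL-6 by AlphaLISA; % inhibition normalised to ±LPS controls, IC50 from concentration-response curves.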

SMILES | IC50
C=C(CC(=O)OCCCCCC)C(=O)OCC(=O)O [Example 94, 2-((4-(hexyloxy)-2-methylene-4-oxobutanoyl)oxy)acetic acid] | 5.3 µM
C=C(CC(=O)O[C@@H](C)CCCCCC)C(=O)OCc1nn[nH]n1 [Example 164, (S)-1-(2H-tetrazol-5-yl)methyl 4-octan-2-yl 2-methylenesuccinate] | 2 µM

Source: US12390437B2, “Itaconic acid derivatives and uses thereof intreating an inflammatory disease or a disease associated with an undesirable immune response” (Sitryx Therapeutics Limited, priority 2019, dated 2025)
